Experimental data taken from US20200088732A1, “METHODS FOR THE DIAGNOSIS AND TREATMENT OF PANCREATIC DUCTAL ADENOCARCINOMA” (INSERM (Institut National de la Santé et de la Recherche …, priority 2017, published 2020).

Tests used:
Type in all cases: cell-based
Pk4A cells = test: Ex vivo peri-neural invasion assay (mouse sciatic nerve co-cultured with cancer cells)
Experimental: The day before the experiment 125,000 PK4A cells are seeded in 24 well plates in DMEM supplemented with 10% FBS and 1% antibiotic/antimycotic. 24 hrs after inhibitors (AG490 at 30 μmol/L or SC144 at 2 μmol/L) were added for 2 h. […] A mouse sciatic nerve section (5 mm) is placed in every well and cultured for 48 hrs then nerve sections are fixed 24 hrs in 4% formaldehyde and embedded in paraffin for immunohistochemistry study. Nerve sections from each condition are cut to make 4 μm sections from 2 different depths spaced by 50 μm and fixed on slides. Slides are processed for cytokeratin immunostaining by IHC as mentioned above. Cells stained with cytokeratine inside or in contact with nerve are recorded (Image J software).
Using human PDA slides, we observed that PAP/REG3A staining is associated with nerve density (Data not shown). Indeed, nerve fibers are mainly present in tissues areas where PAP/REG3A is strongly expressed. […] To further deepen the suspected role of PAP/REG3A as favoring PNI, we designed a specific ex-vivo experiment. Such experiment was done using mouse sciatic nerve fibers that we incubated with Pk4A cells+/−PAP/REG3β mouse recombinant protein (Data not shown). […]

[1] = system: Mouse pancreatic cancer cell, Pk4A; test: Cell migration assay (Boyden chambers), Pk4A cells; details: versus ACm/PAP+ media, AG490 30 μM, 1 hr 45 min, P<0.05, FIG. 2E
Experimental: (§1) Cancer cell migration was studied using PKA4 and PANC-1 cell lines under different media (medium with or without recombinant PAP/REG3A or conditioned medium from acinar cells) on Boyden chambers. Culture inserts from BD Biosciences (353097, Le pont le Claix, FR), with a porous membrane of […], were coated with a mix made of gelatin 0.1% from Sigma-Aldrich (G1890, St Quentin, FR) and fibronectin 10 μg/mL from Sigma-Aldrich (F0895, St Quentin, FR) then seeded with PK4A or PANC-1 cells (100 0000 or 75 000 cells respectively per insert) and placed into wells containing culture media (with or without recombinant PAP/REG3A). PAP/REG3A or […] were used from 0 to 500 ng/mL. Migration was performed for 4 hrs for medium with or without recombinant PAP/REG3A or β and for 1 hr 45 min for conditioned medium from acinar cells. After cleaning and briefly staining inserts with coomassie blue, migration was assessed by counting (Image J software) the number of colored cells in 8-16 high-power fields (magnification ×10).

[2] = system: Human pancreatic cancer cell, Panc-1; test: Cell migration assay (Boyden chambers), Panc-1 cells; details: 100 ng/mL PAP/REG3A recombinant protein, AG490 at 30 μM, P<0.05, FIG. 2C
Experimental: as §1

[3] = system: Mouse pancreatic cancer cell, Pk4A; test: Cell invasion assay (matrigel Boyden chambers), PK4A cells; details: PAP/REG3β 500 ng/mL, AG490 30 μmol/L, 24 hrs, P<0.05, FIG. 2D
Experimental: Cancer cell invasion was studied using PKA4 cells on Boyden chambers according to manufacturer's protocol (354480, Corning Lifesciences, Corning, N.Y., USA). Mouse recombinant PAP/REG3β was used at 500 ng/mL and AG490 at 30 μmol/L. Culture inserts were pre-coated with matrigel matrix then seeded with PK4A (100 0000 cells per insert) and placed into wells containing the medium. Cell counting was measured after 24 hrs of incubation. After cleaning and briefly staining inserts with coomassie blue, invasion was assessed by counting (Image J software) the number of colored cells in 8-16 high-power fields (magnification ×10).

## O=C(NNc1nc2cc(F)ccc2n2cccc12)c1cnccn1 [SC144]
Pk4A cells; Pk4A with nerve fibers and acinar cell media, SC144 2 μmol/L, P<0.05, FIG. 3B
  PNI relative to acinar cell media containing PAP/REG3β (ACm/PAP+): drastically reduced

## N#C/C(=C\c1ccc(O)c(O)c1)C(=O)NCc1ccccc1 [AG490]
[1]
  change of the ACm/PAP+-induced increase of Pk4A migration: significantly reduced
[2]
  effect of inhibitor on PAP/REG3A-induced Panc-1 migration: impair PAP/REG3A effect on Panc-1 migration
[3]
  effect of inhibitor on PAP/REG3β-induced invasion: inhibited
Pk4A cells; PAP/REG3β 500 ng/mL, AG490 30 μmol/L, FIG. 3A
  effect of inhibitor on PAP/REG3β-induced nerve fibers invasion by pancreatic cancer cells: impairs significantly
